# Laboratory results: patent US20240294533A1, “2-(HET)ARYL-SUBSTITUTED CONDENSED HETEROCYCLE DERIVATIVES AS PEST CONTROL AGENTS” (Bayer Aktiengesellschaft, priority 2021, published 2024)
# What was measured:
# Spodoptera frugiperda [1] = assay: Spodoptera frugiperda spray test (cotton leaves); format: in vivo; settings: 4 ppm, after 7 days
# Source text: Spodoptera Frustiperda—Spray Test Solvent: 14 parts by weight of dimethylformamide Emulsifier: alkylaryl polyglycol ether An appropriate active ingredient formulation is produced by dissolving 1 part by weight of active ingredient with the stated parts by weight of solvent and making the solution up to the desired concentration with water containing an emulsifier concentration of 1000 ppm. Further test concentrations are produced by diluting the formulation with emulsifier-containing water. If the addition of ammonium salts or/and penetrants is required, these are each added in a concentration of 1000 ppm to the formulation solution. Cotton leaves (Gossypium hirsutum) are sprayed with an active ingredient formulation of the desired concentration and populated with caterpillars of the armyworm (Spodoptera frugiperda). After 7 days, the kill in % is determined. 100% means that all the caterpillars have been killed; 0% means that none of the caterpillars have been killed.
# Nezara viridula = Nezara viridula spray test (plants sprayed, then infected); format: in vivo; settings: 500 g/ha, barley plants, after 4 days
# Source text: Nezara viridula—Spray Test Solvent: 78.0 parts by weight of acetone • • 1.5 parts by weight of dimethylformamide Emulsifier: alkylaryl polyglycol ether An appropriate active ingredient formulation is produced by dissolving 1 part by weight of active ingredient with the stated parts by weight of solvent and making the solution up to the desired concentration with water containing an emulsifier concentration of 1000 ppm. Further test concentrations are produced by diluting the formulation with emulsifier-containing water. Barley plants (Hordeum vulgare) are sprayed with an active ingredient formulation of the desired concentration and are infected with larvae of the Southern green shield bug (Nezara viridula). After 4 days, efficacy in % is determined. 100% means that all of the shield bugs have been killed; 0% means that none of the shield bugs have been killed.
# Diabrotica balteata = Diabrotica balteata spray test; format: in vivo; settings: Diabrotica balteata, 168 h; 100 g/ha (=32 μg/cavity), wheat grains, after 7 days; read-out: efficacy
# Source text: Diabrotica balteata—Spray Test Solvent: 78 parts by weight of acetone • • 1.5 parts by weight of dimethylformamide Emulsifier: alkylaryl polyglycol ether An appropriate active ingredient formulation is produced by dissolving 1 part by weight of active ingredient with the stated parts by weight of solvent and making the solution up to the desired concentration with water containing an emulsifier concentration of 1000 ppm. Further test concentrations are produced by diluting the formulation with emulsifier-containing water. Pre-swollen wheat grains (Triticum aestivum) are incubated in a multiwell plate filled with agar and a little water for one day (5 seed grains per cavity). The germinated wheat grains are sprayed with an active ingredient formulation of the desired concentration. Subsequently, each cavity is infected with 10-20 beetle larvae of Diabrotica balteata. After 7 days, efficacy in % is determined. 100% means that all wheat plants have grown as in the untreated, uninfected control; 0% means that no wheat plant has grown.
# Meloidogyne incognita = Meloidogyne incognita test; format: in vivo; settings: Meloidogyne incognita, 336 h, lettuce, gall formation after 14 days, read-out: nematicidal efficacy
# Source text: Meloidogyne incognita Test Solvent: 125.0 parts by weight of acetone An appropriate active ingredient formulation is produced by mixing 1 part by weight of active ingredient with the stated amount of solvent and diluting the concentrate to the desired concentration with water. Vessels are filled with sand, active ingredient solution, an egg/larvae suspension of the southern root-knot nematode (Meloidogyne incognita) and lettuce seeds. The lettuce seeds germinate and the plants develop. The galls develop on the roots. After 14 days, the nematicidal efficacy in % is determined by the formation of galls. 100% means that no galls were found; 0% means that the number of galls on the treated plants corresponds to the untreated control.
# [2] = log P by HPLC on reversed-phase column (C18); format: physicochemical; settings: LC-UV, neutral range, ammonium acetate/acetonitrile, read-out: log P (neutral)
# Procedure: log P Values The log P values were determined according to EEC Directive 79/831 Annex V.A8 by HPLC (high-performance liquid chromatography) on a reversed-phase column (C18) using the following methods: ^[a] […] Calibration was carried out using straight-chain alkan-2-ones (having 3 to 16 carbon atoms) with known log P values. The values between successive alkanones are determined by linear regression.
# Myzus persicae = Myzus persicae spray test; format: in vivo; settings: 20 ppm, bell pepper plants, after 6 days
# Source text: Myzus persicae—Spray Test Solvent: 14 parts by weight of dimethylformamide Emulsifier: alkylaryl polyglycol ether An appropriate active ingredient formulation is produced by dissolving 1 part by weight of active ingredient with the stated parts by weight of solvent and making the solution up to the desired concentration with water containing an emulsifier concentration of 1000 ppm. Further test concentrations are produced by diluting the formulation with emulsifier-containing water. If the addition of ammonium salts or/and penetrants is required, these are each added in a concentration of 1000 ppm to the formulation solution. Bell pepper plants (Capsicum annuum) severely infested with the green peach aphid (Myzus persicae) are treated by spraying with the active ingredient formulation in the desired concentration. After 6 days, the kill rate in % is determined. 100% means that all of the aphids have been killed; 0% means that none of the aphids have been killed.
# Spodoptera frugiperda [3] = assay: Spodoptera frugiperda spray test (maize leaf discs); format: in vivo; settings: Spodoptera frugiperda, foliar, 168 h, after 7 days, read-out: efficacy
# Source text: Spodoptera Frusiperda—Spray Test Solvent: 78.0 parts by weight of acetone • • 1.5 parts by weight of dimethylformamide Emulsifier: alkylaryl polyglycol ether An appropriate active ingredient formulation is produced by dissolving 1 part by weight of active ingredient with the stated parts by weight of solvent and making the solution up to the desired concentration with water containing an emulsifier concentration of 1000 ppm. Further test concentrations are produced by diluting the formulation with emulsifier-containing water. Leaf discs of maize (Zea mays) are sprayed with an active ingredient formulation of the desired concentration and, after drying, populated with caterpillars of the fall armyworm (Spodoptera frugiperda). After 7 days, efficacy in % is determined. 100% means that all the caterpillars have been killed; 0% means that no caterpillar has been killed.
# Tetranychus urticae = Tetranychus urticae spray test, OP-resistant; format: in vivo; settings: 500 g/ha, bean leaf discs, after 6 days
# Source text: Tetranychus urticae—Spray Test, OP-Resistant
# Solvent: 78.0 parts by weight of acetone • • 1.5 parts by weight of dimethylformamide
# Emulsifier: alkylaryl polyglycol ether
# An appropriate active ingredient formulation is produced by dissolving 1 part by weight of active ingredient with the stated parts by weight of solvent and making the solution up to the desired concentration with water containing an emulsifier concentration of 1000 ppm. Further test concentrations are produced by diluting the formulation with emulsifier-containing water.
# Discs of bean leaves (Phaseolus vulgaris) infested with all stages of the greenhouse red spider mite (Tetranychus urticae) are sprayed with an active ingredient formulation of the desired concentration.
# After 6 days, efficacy in % is determined. 100% means that all the spider mites have been killed; 0% means that no spider mites have been killed.
smiles,measurement,setting,value
"CCS(=O)(=O)c1ccc(-n2ncn(-c3ccc(F)cc3)c2=O)nc1-c1nc2cc(C(F)(F)C(F)(F)F)cnc2n1C [Example I-02, 2-[5-Ethylsulfonyl-6-[3-methyl-6-(1,1,2,2,2-pentafluoroethyl)imidazo[4,5-b]pyridin-2-yl]-2-pyridyl]-4-(4-fluorophenyl)-1,2,4-triazol-3-one]",efficacy (kill),Spodoptera frugiperda [1],100%
same,efficacy,Nezara viridula,100%
same,pest or weed control at 100 g/ha,Diabrotica balteata,100%
same,pest or weed control at 20 ppm,Meloidogyne incognita,100%
same,chromatographic logP,[2],3.53
CCS(=O)(=O)c1ccc(-n2ncn(-c3ccc(C#N)cc3)c2=O)nc1-c1nc2cc(C(F)(F)C(F)(F)F)nnc2n1C [Example I-06],efficacy,Nezara viridula,100%
same,efficacy (kill rate),Myzus persicae,95%
same,pest or weed control at 100 g/ha,Diabrotica balteata,100%
same,pest or weed control at 100 g/ha,Spodoptera frugiperda [3],100%
CCS(=O)(=O)c1ccc(-n2ncn(-c3ccc(C(=O)OC)cc3)c2=O)nc1-c1nc2cc(C(F)(F)C(F)(F)F)cnc2n1C [Example I-03],efficacy,Tetranychus urticae,90%
same,pest or weed control at 100 g/ha,Diabrotica balteata,100%
